# What was measured:
# Test in all cases: relative viability (nuclei count vs DMSO), 5 days (fraction); higher = more cells survive
# Cediranib + Navitoclax = compound: COc1cc2c(Oc3ccc4[nH]c(C)cc4c3F)ncnc2cc1OCCCN1CCCC1 [Cediranib] + CC1(C)CCC(c2ccc(Cl)cc2)=C(CN2CCN(c3ccc(C(=O)NS(=O)(=O)c4ccc(N[C@H](CCN5CCOCC5)CSc5ccccc5)c(S(=O)(=O)C(F)(F)F)c4)cc3)CC2)C1 [Navitoclax] (partner 0.5 µM)
# Procedure, shortened: (§1)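 For relative viability, nuclei counts in treated wells were divided by those in vehicle wells. Lung cancer cell lines had been pin-tool dosed in 1536-well plates the day after seeding and cultured for 5 days, then fixed and stained in one step (final 0.05% Triton X-100, 1% formaldehyde, 1 ug/ml Hoechst) and imaged at 4×. Doses were one drug alone or a fixed anchor-drug dose plus five library-drug doses (not always all listed) in √10 steps, and values are duplicate-plate medians.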
# Decitabine + Navitoclax = compound: Nc1ncn([C@H]2C[C@H](O)[C@@H](CO)O2)c(=O)n1 [Decitabine] + CC1(C)CCC(c2ccc(Cl)cc2)=C(CN2CCN(c3ccc(C(=O)NS(=O)(=O)c4ccc(N[C@H](CCN5CCOCC5)CSc5ccccc5)c(S(=O)(=O)C(F)(F)F)c4)cc3)CC2)C1 [Navitoclax] (partner 0.5 µM)
# Procedure, shortened: as §1
# Decitabine + Linsitinib = compound: Nc1ncn([C@H]2C[C@H](O)[C@@H](CO)O2)c(=O)n1 [Decitabine] + C[C@]1(O)C[C@@H](c2nc(-c3ccc4ccc(-c5ccccc5)nc4c3)c3c(N)nccn32)C1 [Linsitinib] (partner 1 µM)
# Procedure, shortened: as §1
# Decitabine + Phenformin = compound: Nc1ncn([C@H]2C[C@H](O)[C@@H](CO)O2)c(=O)n1 [Decitabine] + N=C(N)NC(=N)NCCc1ccccc1 [Phenformin] (partner 250 µM)
# Procedure, shortened: as §1
cell line,measurement,setting,value
LK-2,relative viability,Cediranib + Navitoclax; first compound 0.04 µM,1
same,relative viability,Cediranib + Navitoclax; first compound 0.1265 µM,0.848
same,relative viability,Cediranib + Navitoclax; first compound 0.4 µM,0.768
same,relative viability,Cediranib + Navitoclax; first compound 1.265 µM,0.828
same,relative viability,Cediranib + Navitoclax; first compound 4 µM,0.861
same,relative viability,Decitabine + Navitoclax; first compound 0.04 µM,0.739
same,relative viability,Decitabine + Navitoclax; first compound 0.1265 µM,0.881
same,relative viability,Decitabine + Navitoclax; first compound 0.4 µM,0.664
same,relative viability,Decitabine + Navitoclax; first compound 1.265 µM,0.358
same,relative viability,Decitabine + Navitoclax; first compound 4 µM,0.332
same,relative viability,Decitabine + Linsitinib; first compound 0.04 µM,0.462
same,relative viability,Decitabine + Linsitinib; first compound 0.1265 µM,0.637
same,relative viability,Decitabine + Linsitinib; first compound 0.4 µM,0.509
same,relative viability,Decitabine + Linsitinib; first compound 1.265 µM,0.502
same,relative viability,Decitabine + Linsitinib; first compound 4 µM,0.387
same,relative viability,Decitabine + Phenformin; first compound 0.04 µM,0.376
same,relative viability,Decitabine + Phenformin; first compound 0.1265 µM,0.522
same,relative viability,Decitabine + Phenformin; first compound 0.4 µM,0.375
same,relative viability,Decitabine + Phenformin; first compound 1.265 µM,0.295
same,relative viability,Decitabine + Phenformin; first compound 4 µM,0.244
NCI-H441,relative viability,Cediranib + Navitoclax; first compound 0.04 µM,0.466
same,relative viability,Cediranib + Navitoclax; first compound 0.1265 µM,0.63
same,relative viability,Cediranib + Navitoclax; first compound 1.265 µM,0.763
same,relative viability,Cediranib + Navitoclax; first compound 4 µM,0.573
same,relative viability,Decitabine + Navitoclax; first compound 0.04 µM,0.258
same,relative viability,Decitabine + Navitoclax; first compound 0.1265 µM,0.293
same,relative viability,Decitabine + Navitoclax; first compound 0.4 µM,0.274
same,relative viability,Decitabine + Navitoclax; first compound 1.265 µM,0.259
same,relative viability,Decitabine + Navitoclax; first compound 4 µM,0.223
same,relative viability,Decitabine + Linsitinib; first compound 0.04 µM,0.282
same,relative viability,Decitabine + Linsitinib; first compound 0.1265 µM,0.407
same,relative viability,Decitabine + Linsitinib; first compound 0.4 µM,0.272
same,relative viability,Decitabine + Linsitinib; first compound 1.265 µM,0.19
same,relative viability,Decitabine + Linsitinib; first compound 4 µM,0.165
same,relative viability,Decitabine + Phenformin; first compound 0.04 µM,0.494
same,relative viability,Decitabine + Phenformin; first compound 0.1265 µM,0.428
same,relative viability,Decitabine + Phenformin; first compound 0.4 µM,0.306
same,relative viability,Decitabine + Phenformin; first compound 1.265 µM,0.289
same,relative viability,Decitabine + Phenformin; first compound 4 µM,0.231
NCI-H23,relative viability,Cediranib + Navitoclax; first compound 0.04 µM,0.974
same,relative viability,Cediranib + Navitoclax; first compound 0.4 µM,0.615
same,relative viability,Cediranib + Navitoclax; first compound 1.265 µM,0.702
same,relative viability,Cediranib + Navitoclax; first compound 4 µM,0.794
same,relative viability,Decitabine + Navitoclax; first compound 0.04 µM,0.558
same,relative viability,Decitabine + Navitoclax; first compound 0.1265 µM,0.45
same,relative viability,Decitabine + Navitoclax; first compound 0.4 µM,0.305
same,relative viability,Decitabine + Navitoclax; first compound 1.265 µM,0.21
same,relative viability,Decitabine + Navitoclax; first compound 4 µM,0.224
same,relative viability,Decitabine + Linsitinib; first compound 0.04 µM,0.571
same,relative viability,Decitabine + Linsitinib; first compound 0.1265 µM,0.381
same,relative viability,Decitabine + Linsitinib; first compound 0.4 µM,0.252
same,relative viability,Decitabine + Linsitinib; first compound 1.265 µM,0.215
same,relative viability,Decitabine + Linsitinib; first compound 4 µM,0.229
same,relative viability,Decitabine + Phenformin; first compound 0.04 µM,0.579
same,relative viability,Decitabine + Phenformin; first compound 0.1265 µM,0.548
same,relative viability,Decitabine + Phenformin; first compound 0.4 µM,0.297
same,relative viability,Decitabine + Phenformin; first compound 1.265 µM,0.242
same,relative viability,Decitabine + Phenformin; first compound 4 µM,0.244
NCI-H647,relative viability,Cediranib + Navitoclax; first compound 0.04 µM,1.11
same,relative viability,Cediranib + Navitoclax; first compound 0.4 µM,1.16
same,relative viability,Cediranib + Navitoclax; first compound 1.265 µM,1.12
same,relative viability,Cediranib + Navitoclax; first compound 4 µM,1.14
same,relative viability,Decitabine + Navitoclax; first compound 0.04 µM,0.796
same,relative viability,Decitabine + Navitoclax; first compound 0.1265 µM,0.836
same,relative viability,Decitabine + Navitoclax; first compound 0.4 µM,0.355
same,relative viability,Decitabine + Navitoclax; first compound 1.265 µM,0.219
same,relative viability,Decitabine + Navitoclax; first compound 4 µM,0.178
same,relative viability,Decitabine + Linsitinib; first compound 0.04 µM,0.989
same,relative viability,Decitabine + Linsitinib; first compound 0.1265 µM,0.874
same,relative viability,Decitabine + Linsitinib; first compound 0.4 µM,0.759
same,relative viability,Decitabine + Linsitinib; first compound 1.265 µM,0.234
same,relative viability,Decitabine + Linsitinib; first compound 4 µM,0.237
same,relative viability,Decitabine + Phenformin; first compound 0.04 µM,0.372
same,relative viability,Decitabine + Phenformin; first compound 0.1265 µM,0.399
same,relative viability,Decitabine + Phenformin; first compound 0.4 µM,0.25
same,relative viability,Decitabine + Phenformin; first compound 1.265 µM,0.101
same,relative viability,Decitabine + Phenformin; first compound 4 µM,0.172
201T,relative viability,Cediranib + Navitoclax; first compound 0.04 µM,1.25
same,relative viability,Cediranib + Navitoclax; first compound 0.1265 µM,1.28
same,relative viability,Cediranib + Navitoclax; first compound 0.4 µM,1.15
same,relative viability,Cediranib + Navitoclax; first compound 1.265 µM,1.2
same,relative viability,Cediranib + Navitoclax; first compound 4 µM,1.21
same,relative viability,Decitabine + Navitoclax; first compound 0.04 µM,1.16
same,relative viability,Decitabine + Navitoclax; first compound 0.1265 µM,1.14
same,relative viability,Decitabine + Navitoclax; first compound 0.4 µM,1.27
same,relative viability,Decitabine + Navitoclax; first compound 1.265 µM,1.13
same,relative viability,Decitabine + Navitoclax; first compound 4 µM,1.1
same,relative viability,Decitabine + Linsitinib; first compound 0.04 µM,1.06
same,relative viability,Decitabine + Linsitinib; first compound 0.1265 µM,1.16
same,relative viability,Decitabine + Linsitinib; first compound 0.4 µM,1.3
same,relative viability,Decitabine + Linsitinib; first compound 1.265 µM,1.1
same,relative viability,Decitabine + Linsitinib; first compound 4 µM,0.924
same,relative viability,Decitabine + Phenformin; first compound 0.04 µM,0.42
same,relative viability,Decitabine + Phenformin; first compound 0.1265 µM,0.454
same,relative viability,Decitabine + Phenformin; first compound 0.4 µM,0.518
same,relative viability,Decitabine + Phenformin; first compound 4 µM,0.409
NCI-H1734,relative viability,Cediranib + Navitoclax; first compound 0.04 µM,0.759
same,relative viability,Cediranib + Navitoclax; first compound 0.1265 µM,0.83
same,relative viability,Cediranib + Navitoclax; first compound 0.4 µM,0.846
same,relative viability,Cediranib + Navitoclax; first compound 1.265 µM,0.807
same,relative viability,Cediranib + Navitoclax; first compound 4 µM,0.842
same,relative viability,Decitabine + Navitoclax; first compound 0.04 µM,0.583
same,relative viability,Decitabine + Navitoclax; first compound 0.1265 µM,0.57
same,relative viability,Decitabine + Navitoclax; first compound 0.4 µM,0.424
same,relative viability,Decitabine + Navitoclax; first compound 1.265 µM,0.268
same,relative viability,Decitabine + Navitoclax; first compound 4 µM,0.246
same,relative viability,Decitabine + Linsitinib; first compound 0.04 µM,0.739
same,relative viability,Decitabine + Linsitinib; first compound 0.1265 µM,0.691
same,relative viability,Decitabine + Linsitinib; first compound 0.4 µM,0.698
same,relative viability,Decitabine + Linsitinib; first compound 1.265 µM,0.459
same,relative viability,Decitabine + Linsitinib; first compound 4 µM,0.348
same,relative viability,Decitabine + Phenformin; first compound 0.04 µM,0.348
same,relative viability,Decitabine + Phenformin; first compound 0.1265 µM,0.38
same,relative viability,Decitabine + Phenformin; first compound 0.4 µM,0.382
same,relative viability,Decitabine + Phenformin; first compound 1.265 µM,0.276
same,relative viability,Decitabine + Phenformin; first compound 4 µM,0.274
NCI-H596,relative viability,Cediranib + Navitoclax; first compound 0.04 µM,0.943
same,relative viability,Cediranib + Navitoclax; first compound 0.1265 µM,0.926
same,relative viability,Cediranib + Navitoclax; first compound 0.4 µM,0.938
same,relative viability,Cediranib + Navitoclax; first compound 1.265 µM,0.879
same,relative viability,Cediranib + Navitoclax; first compound 4 µM,0.996
same,relative viability,Decitabine + Navitoclax; first compound 0.04 µM,0.912
same,relative viability,Decitabine + Navitoclax; first compound 0.1265 µM,0.868
same,relative viability,Decitabine + Navitoclax; first compound 0.4 µM,0.638
same,relative viability,Decitabine + Navitoclax; first compound 1.265 µM,0.688
same,relative viability,Decitabine + Navitoclax; first compound 4 µM,0.587
same,relative viability,Decitabine + Linsitinib; first compound 0.04 µM,1.07
same,relative viability,Decitabine + Linsitinib; first compound 0.1265 µM,0.983
same,relative viability,Decitabine + Linsitinib; first compound 0.4 µM,0.885
same,relative viability,Decitabine + Linsitinib; first compound 1.265 µM,0.826
same,relative viability,Decitabine + Linsitinib; first compound 4 µM,0.839
same,relative viability,Decitabine + Phenformin; first compound 0.04 µM,0.815
same,relative viability,Decitabine + Phenformin; first compound 0.1265 µM,0.666
same,relative viability,Decitabine + Phenformin; first compound 1.265 µM,0.582
same,relative viability,Decitabine + Phenformin; first compound 4 µM,0.53

# Source: the supplement of paper PMC10307832
